Experimental data: PMC3585964, “Tissue Inhibitor of Metalloproteinases-3 Peptides Inhibit Angiogenesis and Choroidal Neovascularization in Mice” (PLoS ONE, 2013)
“Also recorded” adds a separate entry of the source.

How the values were obtained:
[1] = tested on: VEGFR-1 (Flt-1)/Fc chimera binding to VEGF; assay: Competitive ELISA, binding of sVEGFR-1/Fc to immobilized VEGF; set-up: species or system human; conditions: 50 ng/ml sVEGFR-1 (Flt-1)
Method: (§4) 96 well EIA/RIA strip plates (COSTAR) were coated with 80 ng/ml recombinant VEGF overnight at 4°C, washed and blocked with blocking buffer (1% BSA and 5% sucrose) overnight at 4°C. Series of dilutions were prepared for recombinant proteins representing WT-TIMP-3, NT2:CT3 and N-T3 in PBS or synthetic peptides corresponding to T3-loop 5, T3-loop 6, T3-N or T3-tail peptides in 0.5 M Tris-HCl (pH 7.5). The diluents were mixed with 50 ng/ml recombinant human VEGFR-2 (KDR/Fc chimera, recombinant human VEGFR-1 (Flt-1)/Fc chimera (R&D Systems, Minneapolis, MN) or control human lgG (Sigma Aldrich, St Louis, MO). The mixtures were then added to the VEGF-coated well in a final volume of 100 µL in PBS and incubated for 2 hours at room temperature. Bound VEGFR-2 was detected by HRP-conjugated anti-human lgG(Fc specific) (1∶1000).

[2] = tested on: PAE/KDR cells; assay: VEGF-induced endothelial cell proliferation; type: cell-based, Porcine; conditions: 1 µM peptide, 5 days; for Effect on VEGF-induced endothelial cell proliferation (in words): VEGF 5 ng/ml, ** p<0.01 vs VEGF control in figure legend
Method: (§1) Porcine Aortic Endothelial cells expressing VEGFR-2 (PAEKDR) were cultured in Ham’s F-12/DMEM medium supplemented with 10% fetal bovine serum (FBS) (Hyclone), 50 units/ml penicillin and 50 µg/ml streptomycin as described previously. Recombinant human VEGF was a kind gift from Genentech, CA. Antibodies: Anti-Phosphotyrosine clone 4G10 (Upstate Biotechnology/Millipore, Billerica, MA), monoclonal anti-Flk-1 (A-3) (Santa Cruz Biotechnology, Santacruz, CA), MAPK and phospho-specific MAPK antibodies (Calbiochem-Novabiochem Corporation/EMD chemicals, Gibbstown, NJ).
Cells were seeded at a density of 2000 cells/well in 24 well culture plates and cultured for 24 h in growth medium. After synchronization overnight in serum-free medium supplemented with 0.1% BSA, the cells were stimulated with or without VEGF […] in the presence or absence of the indicated concentrations of TIMP-3 peptides. After a 5-day incubation, cells were trypsinized and counted using a Coulter particle counter.
Figure 6 Effects of TIMP-3 peptides on VEGF-mediated EC proliferation. […] Serum-starved cells were incubated with or without VEGF (5 ng/ml) in the presence or absence of the 1 µM of TIMP-3 peptides for 5 days.

[3] = tested on: VEGFR-2 (KDR) in PAE/KDR cells; assay: VEGF-induced VEGFR-2 phosphorylation (immunoprecipitation/western blot); type: cell-based, Porcine; conditions: 20 µM peptide, 50 ng/ml VEGF
Method: as §1
(§2) Immunoprecipitates of cell lysates with the indicated antibodies were subjected to SDS-PAGE and western blot analysis. Proteins were detected with either a HRP-conjugated anti-rabbit or anti-mouse IgG antibody (Amersham Pharmacia Biotech., Piscataway, NJ) followed by ECL. […]
(§3) Figure 3 Effects of TIMP-3 peptides on VEGF signaling in endothelial cells. […] Cell lysates were separated by SDS-PAGE (10%) and analyzed by immunoprecipitation with an anti-KDR anti-body followed by immunoblotting with an anti-phosphotyrosine antibody, 4G10 (top panel). KDR protein was analyzed by immunoprecipitation and immunoblotting of cell lysates using anti-KDR antibody (bottom panel). (b) Densitometric quantitation of 210-kDa bands for phospho- or total mature form of KDR. […]

[4] = tested on: ERK1 (p44) and ERK2 (p42) in PAE/KDR cells; assay: VEGF-stimulated ERK1/2 (MAP kinase) phosphorylation (western blot); type: cell-based, Porcine; conditions: 20 µM peptide
Method: as §1, §2, §3

[5] = biological target: VEGFR-2 (KDR/Fc chimera) binding to VEGF (Homo sapiens, UniProt P35968); assay: Competitive ELISA, binding of sVEGFR-2/Fc to immobilized VEGF; conditions: competitive ELISA, 50 ng/ml sVEGFR-2, peptides in 0.5 M Tris-HCl pH 7.5
Chain of VEGFR-2 (KDR/Fc chimera) binding to VEGF (P35968 with tags, fused parts or gaps limits assumed): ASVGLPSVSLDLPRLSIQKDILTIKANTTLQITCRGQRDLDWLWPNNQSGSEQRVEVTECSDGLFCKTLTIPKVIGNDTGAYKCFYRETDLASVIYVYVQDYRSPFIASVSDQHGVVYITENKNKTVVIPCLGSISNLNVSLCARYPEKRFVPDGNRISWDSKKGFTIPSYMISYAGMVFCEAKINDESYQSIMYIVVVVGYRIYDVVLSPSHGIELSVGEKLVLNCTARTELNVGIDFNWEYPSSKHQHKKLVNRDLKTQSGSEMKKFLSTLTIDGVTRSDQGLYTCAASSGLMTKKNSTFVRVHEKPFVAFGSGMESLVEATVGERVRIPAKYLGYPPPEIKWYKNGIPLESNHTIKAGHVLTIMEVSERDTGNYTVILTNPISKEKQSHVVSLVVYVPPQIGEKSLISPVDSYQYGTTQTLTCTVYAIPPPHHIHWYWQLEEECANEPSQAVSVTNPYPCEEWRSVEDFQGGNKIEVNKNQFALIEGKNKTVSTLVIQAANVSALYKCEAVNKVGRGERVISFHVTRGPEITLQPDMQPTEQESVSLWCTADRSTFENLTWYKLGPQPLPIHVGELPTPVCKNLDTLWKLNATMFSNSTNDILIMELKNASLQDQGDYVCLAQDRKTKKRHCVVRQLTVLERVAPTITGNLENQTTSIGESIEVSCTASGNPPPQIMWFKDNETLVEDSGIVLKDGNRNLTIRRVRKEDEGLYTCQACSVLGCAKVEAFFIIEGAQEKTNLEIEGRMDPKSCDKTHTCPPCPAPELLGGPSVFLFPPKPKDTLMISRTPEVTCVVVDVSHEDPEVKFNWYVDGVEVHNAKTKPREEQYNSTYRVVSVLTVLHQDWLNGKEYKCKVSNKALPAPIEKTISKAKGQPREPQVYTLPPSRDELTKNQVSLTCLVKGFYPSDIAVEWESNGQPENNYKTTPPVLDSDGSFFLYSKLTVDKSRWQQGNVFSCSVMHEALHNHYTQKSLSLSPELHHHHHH
Method: as §4

[6] = tested on: PAE/KDR cells; assay: Actin reorganization / membrane ruffle formation (FITC-phalloidin); type: cell-based, Porcine; conditions: peptide at doses as high as 20 µM; 50 ng/ml VEGF 30 min 37°C
Method: as §1
Subconfluent cells cultured on Falcon culture slides (BD Biosciences) were serum-starved overnight and stimulated for 30 min at 37°C with 50 ng/ml VEGF or control buffer. The cells were fixed with 3.7% paraformaldehyde in PBS for 30 min at 4°C and permeabilized with 0.2% Triton X-100 for 20 min at room temperature. Following rinsing with PBS, the cells were incubated with fluorescein isothiocyanate (FITC)-labeled phalloidin in PBS (0.66 µg/ml, Sigma Aldrich, St. Louis, MO) for 20 min at room temperature, washed with PBS and analyzed by fluorescence microscopy.
Figure 5 Effects of TIMP-3 peptides on VEGF-mediated actin reorganization. TIMP-3 loop 6 and tail but not loop 5 and N-peptide inhibit VEGF-induced actin reorganization in PAE/KDR cells. […]

[7] = tested on: PAE/KDR cells; assay: Modified Boyden chamber migration assay; type: cell-based, Porcine; conditions: peptide up to 20 µM; 50 ng/ml VEGF, 4 h 37°C, mini-Boyden chamber; quadruplicate samples
Method: as §1
A modified Boyden chamber assay was performed as described previously. Briefly, 8.0 µm pore PVPF polycarbonate membranes were pre-coated with 100 µg/ml collagen type I in 0.2 N acetic acid (Cohesion technologies, Inc. Palo Alto, California). VEGF at the indicated concentrations was placed in the lower chamber, and cells (2×10^5) in serum-free medium were placed in the upper chambers. […] The number of migrating cells per well was evaluated by light microscopy.
Figure 4 Effects of TIMP-3 peptides on VEGF-mediated EC migration. […] Cells were analyzed for migration towards 50 ng/ml VEGF in the presence or absence of increasing concentrations of loop 6 (a) and tail peptides (b) or 20 µM loop 5 or N-peptide (c), respectively, using a mini-Boyden chamber incubated at 37°C for 4 h.

Row | Sequence | Effect of synthetic peptides on VEGF binding to VEGFR-1 (in words) [1] | Possible induction of endothelial cell proliferation [2] | Effect on VEGF-induced endothelial cell proliferation (in words) [2] | Inhibition of VEGF-induced VEGFR-2 activation (phosphorylation) [3] | Inhibition of VEGF-stimulated MAP kinase activation [4] | Effect of synthetic peptides on VEGF binding to sVEGFR-2 (in words) [5] | Effect of synthetic peptides on VEGF binding to sVEGFR-2 (in words) ([5]; listed as Loop5) | Inhibition of VEGF-stimulated membrane ruffle formation [6] | Inhibition of VEGF-induced migration [7]
1 | KIKSCYYLPCFVTS [T3-loop 5] | unable to inhibit sVEGFR-1-VEGF complexes | may in fact induce proliferation of endothelial cells | neither T3-loop 5 nor T3-N peptide showed inhibitory properties | failed to inhibit VEGF-induced receptor activation | neither loop 5 nor N-peptide, even at higher concentrations (20 µM) inhibited VEGF-stimulated MAP kinase activation | did not show any inhibitory activity | have no effect on sVEGFR-2-VEGF complexes | neither T3-loop 5 nor T3-N peptide at doses as high as 20 µM inhibited the formation of membrane ruffles | failed to inhibit VEGF-induced migration
2 | RGFTKMPHVQYIHTEASESL [T3-N peptide] | unable to inhibit sVEGFR-1-VEGF complexes | may in fact induce proliferation of endothelial cells | neither T3-loop 5 nor T3-N peptide showed inhibitory properties | failed to inhibit VEGF-induced receptor activation | neither loop 5 nor N-peptide, even at higher concentrations (20 µM) inhibited VEGF-stimulated MAP kinase activation | did not show any inhibitory activity; also recorded: have no effect on sVEGFR-2-VEGF complexes |  | neither T3-loop 5 nor T3-N peptide at doses as high as 20 µM inhibited the formation of membrane ruffles | failed to inhibit VEGF-induced migration
